This is an account of results in patent US9809808B2, “Antimicrobial agents” (KATHOLIEKE UNIVERSITEIT LEUVEN K.U. LEUVEN R&D, priority 2008, dated 2017).

For experiment [1], the system named is P. aeruginosa Br667. In kind it is cell-based, Pseudomonas aeruginosa.
Experiment [2] deals with P. putida G1. The class given is cell-based, Pseudomonas putida.
Experiment [3] relates to Burkholderia pseudomallei. In kind it is cell-based. The conditions noted are these: 30 minutes.
Experiment [4] has as its system Escherichia coli WK6. The class given is cell-based.
The subject of experiment [5] is Salmonella typhimurium LT2. In kind it is cell-based. The following applies: 30 minutes.
The subject of experiment [6] is Pseudomonas aeruginosa PAO1p cells. The experiment is described as follows: Effect of different EDTA and endolysin concentrations on antibacterial activity of OBPgpLYS and PKOBPgpLYS. The class given is cell-based. The method, then: To determine the influence of EDTA on the antibacterial activity of unmodified and modified endolysins the antibacterial activity of the unmodified OBPgpLYS endolysin (SEQ ID NO: 7) and the PKOBPgpLYS endolysin (SEQ ID NO: 61) was tested on Pseudomonas aeruginosa PAO1p cells ([…] et al. J Clin Microbiol., 41(3):1192-1202 (2003)) using different concentrations of EDTA and endolysins. Exponential growing bacterial cells (OD600 nm of 0.6) were 100-fold diluted to a final density of about 10^6/ml and incubated for 30 minutes at room temperature without shaking with unmodified endolysin OBPgpLYS (SEQ ID NO: 7) and modified endolysin PKOBPgpLYS (SEQ ID NO: 61). […] Thereby, the following different EDTA concentrations were used: 0 mM, 0.05 mM, 0.5 mM and 10 mM. […] After incubation cell suspensions were diluted three times (respectively 10^5-10^4-10^3 cells/ml) and 100 μl of each dilution was plated out on LB-medium. […] All samples were replicated in threefold. Averages+/-standard deviations are represented.

Experiment [7] concerns Gram-negative strains of Table 12. In kind it is cell-based.
Experiment [8] relates to P. aeruginosa Br667. Kind of experiment: Antibacterial activity of PSP3gp10 and PKPSP3gp10 with and without EDTA (30 minutes, colony count). The class given is cell-based, Pseudomonas aeruginosa. The conditions noted are these: 0.5 mM EDTA, no endolysin.
Experiment [9] concerns Escherichia coli WK6. The description is as above. In kind it is cell-based. The conditions noted are these: 0.5 mM EDTA, no endolysin. The method, then:
(§1) To determine the anti-Gram-negative spectrum of the PKPSP3gp10 endolysin according to SEQ ID NO: 53, a combination of 1.315 μM PKPSP3gp10 endolysin and 0.5 mM EDTA was tested on the clinical P. aeruginosa strains PAO1p and Br667, Escherichia coli WK6, and Salmonella typhimurium (see Table 5). Exponential growing bacterial cells (OD600 nm of 0.6) were 100-fold diluted to a final density of about 10^6/ml of each strain were incubated for 30 minutes at room temperature without shaking with unmodified endolysin […] (SEQ ID NO: 8) and modified endolysin PKPSP3gp10 (SEQ ID NO: 53) each in combination without and with 0.5 mM EDTA. […] As a control each strain was also incubated for 30 minutes with 0.5 mM EDTA (in same buffer as outlined above) but no endolysin.
(§2) After incubation cell suspensions were diluted three times (respectively 10^5-10^4-10^3 cells/ml) and 100 μl of each dilution was plated out on LB-medium.

Experiment [10] has as its system Salmonella typhimurium LT2. Described as above. The class given is cell-based. The following applies: 0.5 mM EDTA, no endolysin. The method, then: as §1, §2
Experiment [11] relates to P. aeruginosa Br667. The experiment is described as follows: Antibacterial activity of P2gp09 and PKP2gp09 with and without EDTA (30 minutes, colony count). The conditions noted are these: 0.5 mM EDTA, no endolysin, 30 minutes. In kind it is cell-based, Pseudomonas aeruginosa.
In experiment [12] the test system is P. putida G1. The description is as above. In kind it is cell-based, Pseudomonas putida. The conditions noted are these: 0.5 mM EDTA, no endolysin, 30 minutes.
Experiment [13] has as its system Escherichia coli WK6. The description is as above. In kind it is cell-based. The following applies: 0.5 mM EDTA, no endolysin, 30 minutes. Here is the method:
To determine the anti-Gram-negative spectrum of the PK2gp09 endolysin according to SEQ ID NO: 57, a combination of 1.315 μM PK2gp09 endolysin and 0,5 mM EDTA was tested on the clinical P. aeruginosa strains PAO1p and Br667 and on Escherichia coli WK6 (see Table 9). Exponential growing bacterial cells (OD600 nm of 0.6) were 100-fold diluted to a final density of about 10^6/ml of each strain was incubated for 30 minutes at room temperature without shaking with unmodified endolysin P2gp09 (SEQ ID NO: 9) and modified endolysin PKP2gp09 (SEQ ID NO: 57) each in combination without and with 0.5 mM EDTA. […] As a control each strain was also incubated for 30 minutes with 0.5 mM EDTA (in same buffer as outlined above) but no endolysin. After incubation cell suspensions were diluted three times (respectively 10^5-10^4-10^3 cells/ml) and 100 μl of each dilution was plated out on LB-medium.

Setting [14] is: 1.313 μM endolysin, no EDTA, 30 minutes.
Where [15] appears, read: 1.313 μM endolysin + 0.5 mM EDTA.
[16] abbreviates: 0.013 μM endolysin, 0 mM EDTA-Na2, 30 minutes.
Where [17] appears, read: 0.013 μM endolysin, 0.5 mM EDTA-Na2, 30 minutes.
[18] abbreviates: 0.131 μM endolysin, 0 mM EDTA-Na2, 30 minutes.
[19] abbreviates: 0.131 μM endolysin, 0.5 mM EDTA-Na2, 30 minutes.
Setting [20] is: 1.315 μM endolysin, 0.05 mM EDTA-Na2, 30 minutes.
Where [21] appears, read: 1.315 μM endolysin, 0.5 mM EDTA-Na2, 30 minutes.
Where [22] appears, read: 1.315 μM endolysin, 10 mM EDTA-Na2, 30 minutes.
The mark [23] stands for this setting: 0.5 mM EDTA, no endolysin, 30 minutes.

Values joined by “and” are separate entries in the source; they are usually repeats but may differ in a detail not shown here. Equal values may be shown once. Read-outs that look alike come from different tables or passages of the source.

Consider “OBPgpLYS: SEQ ID NO: 7: unmodified modular endolysin of 328 amino acid residues originating from Pseudomonas putida phage OBP”, for which the “relative inactivation in logarithmic units (log10N0/Ni)” value (“relative inactivation … (log10N0/Ni)” below) is 3.144 +/− 0.223 logarithmic units in experiment [1]; 1.082 +/− 0.083 logarithmic units in experiment [1] (setting [14]); 4.891 +/− 0.000 logarithmic units in [2]; 0.141 +/− 0.027 logarithmic units in experiment [2] (setting [14]); 4.08 +/− 0.301 logarithmic units in experiment [3] (setting [15]); 0.997 +/− 0.131 logarithmic units in [3] (1.313 μM endolysin, no EDTA). For the same molecule, the “relative inactivation … (log10N0/Ni)” value in experiment [4] is recorded as 1.179 +/− 0.200 logarithmic units; in experiment [4] (setting [14]) it was 0.681 +/− 0.032 logarithmic units; in experiment [5] (setting [15]), 0.774 +/− 0.052 logarithmic units; in [5] (1.313 μM endolysin, no EDTA), 0.076 +/− 0.011 logarithmic units; in [6] (setting [16]), 0.956 +/− 0.110 log units; in [6] (setting [17]), 4.626 +/− 0.287 log units. Moreover, the “relative inactivation … (log10N0/Ni)” value is given as 2.158 +/− 0.027 log units in experiment [6] (setting [18]); 4.599 +/− 0.275 log units in experiment [6] (setting [19]); 2.762 +/− 0.091 log units in experiment [6] (setting [20]); 4.357 +/− 1.857 log units in [6] (setting [21]); 4.888 +/− 0.275 log units in experiment [6] (setting [22]).
“PKOBPgpLYS: SEQ ID NO: 61: OBPgpLYS (SEQ ID NO: 7) with N-terminal peptide stretch KRKKRKKRK (SEQ ID NO: 11)”: the “relative inactivation … (log10N0/Ni)” value in experiment [1] was 5.272 +/− 0.573 logarithmic units; in experiment [1] (setting [14]), 1.163 +/− 0.063 logarithmic units; in [2], over 4.891 logarithmic units; in experiment [2] (setting [14]) it was 0.904 +/− 0.079 logarithmic units; in experiment [3] (setting [15]) it was over 4.861 logarithmic units; in [3] (1.313 μM endolysin, no EDTA), 1.806 +/− 0.287 logarithmic units. Besides, the “relative inactivation … (log10N0/Ni)” value in experiment [4] is 1.695 +/− 0.147 logarithmic units; in [4] (setting [14]), 1.434 +/− 0.018 logarithmic units; in experiment [5] (setting [15]), 0.908 +/− 0.037 logarithmic units; in experiment [5] (1.313 μM endolysin, no EDTA), 0.127 +/− 0.013 logarithmic units; in experiment [6] (setting [16]), 0.992 +/− 0.181 log units; in experiment [6] (setting [17]) it was 5.204 +/− 0.000 log units. In addition, the “relative inactivation … (log10N0/Ni)” value was 2.529 +/− 0.184 log units in experiment [6] (setting [18]); 5.671 +/− 0.000 log units in [6] (setting [19]); 3.079 +/− 0.015 log units in experiment [6] (1.315 μM endolysin, 0 mM EDTA-Na2, 30 minutes); 4.145 +/− 0.015 log units in [6] (setting [20]); > 5.69 log units and >5.687 log units in experiment [6] (setting [21]); > 5.69 log units and >5.687 log units in [6] (setting [22]). Also, the “Δ, difference of activity between OBPgpLYS and PKOBPgpLYS samples” value in experiment [6] (0.013 μM endolysin, 0 mM EDTA-Na2) is 0.036 log units; in [6] (0.013 μM endolysin, 0.5 mM EDTA-Na2) it was 0.578 log units; in [6] (0.131 μM endolysin, 0 mM EDTA-Na2), 0.371 log units; in [6] (0.131 μM endolysin, 0.5 mM EDTA-Na2), 1.072 log units; in experiment [6] (1.315 μM endolysin, 0 mM EDTA-Na2), 0.5 log units and 0.548 log units; in experiment [6] (1.315 μM endolysin, 0.05 mM EDTA-Na2), 1.383 log units. Also, the “Δ, difference of activity between OBPgpLYS and PKOBPgpLYS samples” value in experiment [6] (1.315 μM endolysin, 0.5 mM EDTA-Na2) is listed as over 1.330 log units; in experiment [6] (1.315 μM endolysin, 10 mM EDTA-Na2) it was over 0.799 log units. Besides, the “effect compared to unmodified OBPgpLYS (in words)” value in [7] is on record as “added effect”. For the same molecule, the “interaction with EDTA (in words)” value in [7] is listed as “clear synergistic effect”.
Consider `O=C([O-])CN(CCN(CC(=O)[O-])CC(=O)O)CC(=O)O.[Na+].[Na+]` [EDTA, reference compound], for which the “relative inactivation … (log10N0/Ni)” value is reported as 0.223 +/− 0.038 logarithmic units in [8]; 0.393 +/− 0.035 logarithmic units in experiment [9]; 0.104 +/− 0.049 logarithmic units in [10]; 0.003 logarithmic units in [11]; 0.072 logarithmic units in experiment [12]; 0.153 logarithmic units in experiment [13]. For the same molecule, the “relative inactivation … (log10N0/Ni)” value was 0.031 +/− 0.023 logarithmic units in [1] (setting [23]); 0.412 +/− 0.055 logarithmic units in [2] (setting [23]); 0.592 +/− 0.113 logarithmic units in [4] (setting [23]); 0.054 +/− 0.048 logarithmic units in experiment [5] (0.5 mM EDTA, no endolysin); 0.028 +/− 0.008 log units in [6] (no endolysin, 0.05 mM EDTA-Na2, 30 minutes); 0.130 +/− 0.023 log units in experiment [6] (no endolysin, 0.5 mM EDTA-Na2, 30 minutes). Moreover, the “relative inactivation … (log10N0/Ni)” value in experiment [6] (no endolysin, 10 mM EDTA-Na2, 30 minutes) was 1.827 +/− 0.052 log units.
